Data: patent US8133687B2, “Labor biomarkers, methods comprising same, and methods targeting same” (The Trustees of the University of Pennsylvania, priority 2005, dated 2012)
Read-outs that look alike come from different tables or passages of the source. Where no end group is shown, it is not given here.

Test system: rat aorta-derived A7R5 vascular smooth muscle cells
Format: cell-based
Conditions: for effect on bradykinin response (cell area): added together with 5 nM bradykinin; for effect on cell area when administered without bradykinin: peptide alone; for effect on PGF2α-induced decrease in cell area: with PGF2α (0.56 nM PG in FIG. 10); for effect on oxytocin-induced decrease in cell area: with oxytocin (10 nM OT in FIG. 10)
Experimental: PA gels of controlled stiffness were coated with a nearly constant collagen level (5×10^2 ng/cm^2) as assessed by fluorescent collagen intensities. […] To assess the ability of peptides found in cervicovaginal fluid to activate smooth muscle cells, rat aorta-derived […] vascular smooth muscle cells ([…]; ATCC, Manassas, Va.) were plated onto polyacrylamide gel surfaces (34 kPa) with collagen type 1 (BD Biosciences, San Diego) and covalently pre-attached to the gel surface by sulpho-SANPAH (Pierce, Rockland, Ill.), providing a quantitative and reproducible uterotonics activity assay. Cells were permitted to adhere to the surface for 30 minutes, then were incubated at 37° C. for 4 hours with bradykinin (0-1 μM, Sigma-Aldrich, St. […] Data was fit to a hyperbolic expression using a least squared method, with the half-saturation constant (IC50) representing the intermediate set-point for the system.

[1] = agonist alone, A7R5 cells, 4 hours at 37° C., read-out: IC50 of dose-dependent decrease in cell area
[2] = A7R5 cells, listed as potentiation peptide (PP)

## CC[C@H](C)[C@@H]1NC(=O)[C@H](Cc2ccc(O)cc2)NC(=O)[C@@H](N)CSSC[C@@H](C(=O)N2CCC[C@H]2C(=O)N[C@@H](CC(C)C)C(=O)NCC(N)=O)NC(=O)[C@H](CC(N)=O)NC(=O)[C@H](CCC(N)=O)NC1=O [Oxytocin, oxytocin, reference compound]
4 h
  IC50: 8 nM

## CCCCC[C@H](O)/C=C/[C@@H]1[C@@H](C/C=C\CCCC(=O)O)[C@@H](O)C[C@H]1O [PGF2α, reference compound]
Agonist alone, A7R5 cells, 4 hours at 37° C., listed as PGF2-α, read-out: IC50 of dose-dependent decrease in cell area
  IC50: 0.56 nM
[1]
  IC50: 1 nM

## AAHLPAEFTPAVHASLDKF [2.022 kDa peptide, amino acids 110-128 of α-chain hemoglobin]
A7R5 cells
  effect on bradykinin response (cell area): augmented the bradykinin response
  effect on cell area when administered without bradykinin: Neither the 2.022 kDa peptide nor the control peptide had an effect on cell area
  effect on PGF2α-induced decrease in cell area: enhanced by sub-μM amounts
  effect on oxytocin-induced decrease in cell area: enhanced by sub-μM amounts
[2]
  effect on bradykinin response (cell area): augmented the 5 nM BK response
  effect on PGF2α-induced decrease in cell area: augmented the 0.56 nM PG response
  effect on oxytocin-induced decrease in cell area: augmented the 10 nM OT response
Bradykinin 1 μM, A7R5 cells
  effect on decrease in cell area elicited by maximal doses of bradykinin: not affected
With half-saturation dose of bradykinin (5 nM), A7R5 cells, read-out: half-saturation effect of the peptide on the bradykinin response
  EC50: 9.35 µM

## KAHEFYLAAHPTDALFASP (KAHEFYLAAHPTDALFASP-NH2) [control peptide, same amino acids as the 2.022 kDa peptide, residues ordered randomly, reference compound]
A7R5 cells
  effect on bradykinin response (cell area): did not affect the bradykinin response
  effect on cell area when administered without bradykinin: Neither the 2.022 kDa peptide nor the control peptide had an effect on cell area

## RPPGFSPFR [Bradykinin, bradykinin, reference compound]
[1]
  IC50: 5 nM
